Counter-ions that a name gives are not always drawn.
Target: T1, recombinant human TGR5 (Homo sapiens, UniProt Q8TDU6)
T1 construct: expressed in transfected cells
T1 sequence (Q8TDU6 1-330): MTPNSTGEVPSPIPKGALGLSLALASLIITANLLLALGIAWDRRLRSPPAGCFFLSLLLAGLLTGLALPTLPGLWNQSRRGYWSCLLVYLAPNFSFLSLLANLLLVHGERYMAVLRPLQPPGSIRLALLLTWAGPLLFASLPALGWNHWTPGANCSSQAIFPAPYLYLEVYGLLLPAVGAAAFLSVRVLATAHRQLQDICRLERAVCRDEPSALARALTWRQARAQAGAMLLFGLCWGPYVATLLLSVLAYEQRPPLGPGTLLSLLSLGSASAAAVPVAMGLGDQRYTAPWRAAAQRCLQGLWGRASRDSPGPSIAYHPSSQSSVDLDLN
Test: cAMP assay (cAMP accumulation, HTRF) in CHOK1 cells stably expressing TGR5
Type: cell-based
Details: CHOK1 cells stably expressing human TGR5, 30 minutes at RT, 1% DMSO
Method in brief: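 Agonist-induced cAMP accumulation: stable TGR5-CHOK1 cells treated 30 min at RT with compound (1% DMSO) plus 0.1 mM IBMX. HTRF ratio converted to nM cAMP via standard curve; EC50 from four-parameter logistic fit, midpoint between baseline and maximum.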

Compound | EC50
Cc1c(Cl)cccc1OCCCC(=O)N1C[C@@H]2C[C@@H]2c2c(-c3cnn(Cc4cccc(C(=O)O)c4)c3)cccc21 (single isomer, unassigned) [Example 231] | 47 nM
Cc1cccc(OCCCC(=O)N2CCCc3c(-c4cnn(CC(=O)O)c4)cccc32)c1C [Example 1, 2-(4-(1-(4-(2,3-Dimethylphenoxy)butanoyl)-1,2,3,4-tetrahydroquinolin-5-yl)-1H-pyrazol-1-yl)acetic acid] | 3540 nM
Cc1c(Cl)cccc1OCCCC(=O)N1C[C@@H]2C[C@@H]2c2c(-c3cnn(Cc4cccc(C(=O)NCCS(=O)(=O)O)c4)c3)cccc21 [Example 138A, 2-(3-((4-((1aR,7bS)-3-(4-(3-Chloro-2-methylphenoxy)butanoyl)-1a,2,3,7b-tetrahydro-1H-cyclopropa[c]quinolin-7-yl)-1H-pyrazol-1-yl)methyl)benzamido) ethanesulfonic acid] | 24 nM
CCOC(=O)CN(CC(=O)OCC)C(=O)c1cccc(Cn2cc(-c3cccc4c3[C@H]3C[C@H]3CN4C(=O)CCCOc3cccc(Cl)c3C)cn2)c1 [Example 896, Diethyl 2,2′-(3-((4-((1aR,7bS)-3-(4-(3-chloro-2-methylphenoxy)butanoyl)-1a,2,3,7b-tetrahydro-1H-cyclopropa[c]quinolin-7-yl)-1H-pyrazol-1-yl)methyl)benzoylazanediyl)diacetate] | 198 nM
CCOC(=O)CNC(=O)Nc1cccc(Cn2cc(-c3cccc4c3[C@H]3C[C@H]3CN4C(=O)CCCOc3cccc(Cl)c3C)cn2)c1 [Example 914, Ethyl 2-(3-(3-((4-((1aR,7bS)-3-(4-(3-chloro-2-methylphenoxy)butanoyl)-1a,2,3,7b-tetrahydro-1H-cyclopropa[c]quinolin-7-yl)-1H-pyrazol-1-yl)methyl)phenyl)ureido)acetate] | 32 nM
Cc1c(Cl)cccc1OCCCC(=O)N1C[C@@H]2C[C@@H]2c2c(-c3cnn(Cc4cccc(NC(=O)NCC(=O)O)c4)c3)cccc21 [Example 916, 2-(3-(3-((4-((1aR,7bS)-3-(4-(3-Chloro-2-methylphenoxy)butanoyl)-1a,2,3,7b-tetrahydro-1H-cyclopropa[c]quinolin-7-yl)-1H-pyrazol-1-yl)methyl)phenyl)ureido) acetic acid] | 37 nM
Cc1c(Cl)cccc1OCCCC(=O)N1C[C@@H]2C[C@@H]2c2c(-c3cnn(Cc4cccc(N)c4)c3)cccc21 [Example 924A, 1-((1aR,7bS)-7-(1-(3-Aminobenzyl)-1H-pyrazol-4-yl)-1a,2-dihydro-1H-cyclopropa[c]quinolin-3(7bH)-yl)-4-(3-chloro-2-methylphenoxy)butan-1-one, TFA salt] | 38 nM
CCOC(=O)CNC(=O)c1cccc(Cn2cc(-c3cccc4c3[C@H]3C[C@H]3CN4C(=O)CCCOc3cccc(Cl)c3C)cn2)c1 [Example 924B, Ethyl 2-(3-((4-((1aR,7bS)-3-(4-(3-chloro-2-methylphenoxy)butanoyl)-1a,2,3,7b-tetrahydro-1H-cyclopropa[c]quinolin-7-yl)-1H-pyrazol-1-yl)methyl)benzamido)acetate] | 27 nM
Cc1cccc(N(CCCC(=O)N2CCCc3c(-c4cnn(Cc5cccc(C(=O)O)c5)c4)cccc32)C(=O)OC(C)(C)C)c1C [Example 933, 3-((4-(1-(4-(tert-Butoxycarbonyl(2,3-dimethylphenyl)amino)butanoyl)-1,2,3,4-tetrahydroquinolin-5-yl)-1H-pyrazol-1-yl)methyl)benzoic acid] | 1610 nM
Cc1cccc(NCCCC(=O)N2CCCc3c(-c4cnn(Cc5cccc(C(=O)O)c5)c4)cccc32)c1C [Example 934, 3-((4-(1-(4-(2,3-Dimethylphenylamino)butanoyl)-1,2,3,4-tetrahydroquinolin-5-yl)-1H-pyrazol-1-yl)methyl)benzoic acid, TFA salt] | 191 nM
(R)-5-tert-Butyl 1-methyl 2-(4- chloro-3-((4-((1aR,7bS)-3-((2- (3-chloro-2-methylphenoxy) ethoxy)carbonyl)-1a,2,3,7b- tetrahydro-1H-cyclopropa[c] quinolin-7-yl)-1H-pyrazol-1- yl)methyl)benzamido) pentanedioate [Example 669] | 1340 nM

Target: T2, recombinant human DGAT1 (Homo sapiens, UniProt O75907)
T2 construct: made in house; host or cells: Sf9 insect cells (baculovirus), membrane preparation
T2 sequence (O75907 1-488): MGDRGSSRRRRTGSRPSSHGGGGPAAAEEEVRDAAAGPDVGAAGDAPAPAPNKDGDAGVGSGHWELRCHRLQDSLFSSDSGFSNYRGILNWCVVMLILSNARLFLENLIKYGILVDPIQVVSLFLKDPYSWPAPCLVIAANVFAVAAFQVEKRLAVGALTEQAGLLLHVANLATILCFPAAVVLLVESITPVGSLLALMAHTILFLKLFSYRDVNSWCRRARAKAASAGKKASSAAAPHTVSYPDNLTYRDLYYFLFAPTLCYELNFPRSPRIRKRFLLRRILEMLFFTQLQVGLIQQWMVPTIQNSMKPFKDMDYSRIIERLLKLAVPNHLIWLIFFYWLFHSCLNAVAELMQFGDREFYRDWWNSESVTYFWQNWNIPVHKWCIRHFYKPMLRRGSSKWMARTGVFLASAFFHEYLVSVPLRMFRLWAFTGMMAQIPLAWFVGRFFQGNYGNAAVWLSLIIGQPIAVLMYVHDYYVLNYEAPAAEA
Test: Diacylglycerol Acyltransferase (DGAT) Assay
Type: biochemical
Details: membranes from Sf9 cells expressing recombinant human DGAT1; 2-monooleoylglycerol and [3H]-oleoyl-CoA as substrates; read-out: IC50 against the DGAT1 enzyme
Description: Diacylglycerol Acyltransferase (DGAT) Assay
DGAT1 enzyme was assayed using membranes isolated from Sf9 cells expressing the recombinant human DGAT1 cDNA with 2-monooleoylglycerol and [^3H]-oleoyl-CoA as substrates as described by Seethala et al. (Anal Biochem., 383(2):144-150 (Dec. 15, 2008)). Briefly, the assays were conducted in 384-well plates in a total volume of 30 μl at 25° C. In each assay, 200 ng of recombinant human DGAT1 membrane was incubated with 10 μM of 2-monooleoylglycerol and 15 μM of [^3H]-oleoyl-CoA in 100 mM potassium phosphate (pH 7.4) for 20 min with various concentrations of compounds delivered in DMSO. The assay was terminated by the addition of 20 μl of Stopping Solution (7.5 mg/ml Yittrium Oxide Polylysine beads, 3.3 mg/ml Fraction V BSA and 200 μM Mercuric chloride in 50 mM HEPES, pH 7.4). The signal was measured 1 h after quenching the reaction using LEADSEEKER^SM for 5 minutes. To calculate the degree of inhibition, the zero level of enzyme activity (blank) was defined by the above assay procedure using membrane form Sf9 cell uninfected with baculovirus (Naive) and the 100% level of DGAT1 enzyme activity was defined by human […] DGAT1 assay with the vehicle DMSO. The IC50s of inhibitors were determined by logistic 4 parameter equation in XL-fit.

Compound | IC50
Cc1c(Cl)cccc1OCCCC(=O)N1C[C@@H]2C[C@@H]2c2c(-c3cnn(Cc4cccc(C(=O)O)c4)c3)cccc21 (single isomer, unassigned) [Example 231] | > 10000 nM
Cc1cccc(OCCCC(=O)N2C[C@@H]3C[C@@H]3c3c(-c4cccc(COC(=O)NCCC(=O)O)c4)cccc32)c1C (single isomer, unassigned) [Example 237] | > 10000 nM
Cc1cccc(OCCCC(=O)N2CCCc3c(-c4cnn(CC(=O)O)c4)cccc32)c1C [Example 1, 2-(4-(1-(4-(2,3-Dimethylphenoxy)butanoyl)-1,2,3,4-tetrahydroquinolin-5-yl)-1H-pyrazol-1-yl)acetic acid] | > 10000 nM
Cc1cccc(OCCCC(=O)N2CC3CC3c3c(-c4cnn(Cc5c(F)cc(C(=O)NCCC[C@H](N)C(=O)O)cc5Cl)c4)cccc32)c1C (stereo partly drawn) [Example 69A, (2S)-2-Amino-5-(3-chloro-4-((4-(3-(4-(2,3-dimethylphenoxy)butanoyl)-1a,2,3,7b-tetrahydro-1H-cyclopropa[c]quinolin-7-yl)-1H-pyrazol-1-yl)methyl)-5-fluorobenzamido)pentanoic acid] | > 10000 nM
Cc1cccc(OCCCC(=O)N2CCCc3c(-c4cnn(Cc5cccc(OCCP(=O)(O)O)c5)c4)cccc32)c1C [Example 69M, 2-(3-((4-(1-(4-(2,3-Dimethylphenoxy)butanoyl)-1,2,3,4-tetrahydroquinolin-5-yl)-1H-pyrazol-1-yl)methyl)phenoxy)ethylphosphonic acid] | > 10000 nM
Cc1cccc(OCCCC(=O)N2CCCc3c(-c4cnn(Cc5cccc(NC(=O)NCS(=O)(=O)O)c5)c4)cccc32)c1C [Example 86, (3-(3-((4-(1-(4-(2,3-Dimethylphenoxy)butanoyl)-1,2,3,4-tetrahydroquinolin-5-yl)-1H-pyrazol-1-yl)methyl)phenyl)ureido)methanesulfonic acid] | > 10000 nM
Cc1c(Cl)cccc1OCCCC(=O)N1C[C@@H]2C[C@@H]2c2c(-c3cnn(Cc4cccc(C(=O)NCCS(=O)(=O)O)c4)c3)cccc21 [Example 138A, 2-(3-((4-((1aR,7bS)-3-(4-(3-Chloro-2-methylphenoxy)butanoyl)-1a,2,3,7b-tetrahydro-1H-cyclopropa[c]quinolin-7-yl)-1H-pyrazol-1-yl)methyl)benzamido) ethanesulfonic acid] | > 10000 nM
Cc1cccc(OCCCC(=O)N2CCCc3c(-c4ccnc(Nc5ccc(C(=O)O)cc5)c4)cccc32)c1C [Example 168A, 4-(4-(1-(4-(2,3-Dimethylphenoxy)butanoyl)-1,2,3,4-tetrahydroquinolin-5-yl)pyridin-2-ylamino) benzoic acid] | > 10000 nM
Cc1cccc(OCCCC(=O)N2CCOc3c(-c4cnn(Cc5cccc(NC(=O)NCCS(=O)(=O)O)c5)c4)cccc32)c1C [Example 177N, 2-(3-(3-((4-(4-(4-(2,3-Dimethylphenoxy)butanoyl)-3,4-dihydro-2H-benzo[b][1,4]oxazin-8-yl)-1H-pyrazol-1-yl)methyl)phenyl)ureido) ethanesulfonic acid] | > 10000 nM
Cc1cccc(OCCCC(=O)N2CCOc3c(-c4cnn(Cc5c(F)cc(C(=O)NCC[N+](C)(C)C)cc5Cl)c4)cccc32)c1C [Example 177P, 2-(3-Chloro-4-((4-(4-(4-(2,3-dimethylphenoxy)butanoyl)-3,4-dihydro-2H-benzo[b][1,4]oxazin-8-yl)-1H-pyrazol-1-yl)methyl)-5-fluorobenzamido)-N,N,N-trimethylethanaminium, TFA] | > 10000 nM
Cc1cccc(OCCCC(=O)N2CCCc3c(-c4cnn(Cc5cccc(OCCS(=O)(=O)O)c5)c4)cccc32)c1C [Example 215, 2-(3-((4-(1-(4-(2,3-Dimethylphenoxy)butanoyl)-1,2,3,4-tetrahydroquinolin-5-yl)-1H-pyrazol-1-yl)methyl)phenoxy)ethanesulfonic acid] | > 10000 nM

— patent US9062028B2, “Bicyclic nitrogen containing heteroaryl TGR5 receptor modulators” (Bristol-Myers Squibb Company, priority 2011, dated 2015)
